The target in assay [1] is T1, Cyclin-G-associated kinase (Homo sapiens) (UniProt O14976).
T1 sequence (whole entry): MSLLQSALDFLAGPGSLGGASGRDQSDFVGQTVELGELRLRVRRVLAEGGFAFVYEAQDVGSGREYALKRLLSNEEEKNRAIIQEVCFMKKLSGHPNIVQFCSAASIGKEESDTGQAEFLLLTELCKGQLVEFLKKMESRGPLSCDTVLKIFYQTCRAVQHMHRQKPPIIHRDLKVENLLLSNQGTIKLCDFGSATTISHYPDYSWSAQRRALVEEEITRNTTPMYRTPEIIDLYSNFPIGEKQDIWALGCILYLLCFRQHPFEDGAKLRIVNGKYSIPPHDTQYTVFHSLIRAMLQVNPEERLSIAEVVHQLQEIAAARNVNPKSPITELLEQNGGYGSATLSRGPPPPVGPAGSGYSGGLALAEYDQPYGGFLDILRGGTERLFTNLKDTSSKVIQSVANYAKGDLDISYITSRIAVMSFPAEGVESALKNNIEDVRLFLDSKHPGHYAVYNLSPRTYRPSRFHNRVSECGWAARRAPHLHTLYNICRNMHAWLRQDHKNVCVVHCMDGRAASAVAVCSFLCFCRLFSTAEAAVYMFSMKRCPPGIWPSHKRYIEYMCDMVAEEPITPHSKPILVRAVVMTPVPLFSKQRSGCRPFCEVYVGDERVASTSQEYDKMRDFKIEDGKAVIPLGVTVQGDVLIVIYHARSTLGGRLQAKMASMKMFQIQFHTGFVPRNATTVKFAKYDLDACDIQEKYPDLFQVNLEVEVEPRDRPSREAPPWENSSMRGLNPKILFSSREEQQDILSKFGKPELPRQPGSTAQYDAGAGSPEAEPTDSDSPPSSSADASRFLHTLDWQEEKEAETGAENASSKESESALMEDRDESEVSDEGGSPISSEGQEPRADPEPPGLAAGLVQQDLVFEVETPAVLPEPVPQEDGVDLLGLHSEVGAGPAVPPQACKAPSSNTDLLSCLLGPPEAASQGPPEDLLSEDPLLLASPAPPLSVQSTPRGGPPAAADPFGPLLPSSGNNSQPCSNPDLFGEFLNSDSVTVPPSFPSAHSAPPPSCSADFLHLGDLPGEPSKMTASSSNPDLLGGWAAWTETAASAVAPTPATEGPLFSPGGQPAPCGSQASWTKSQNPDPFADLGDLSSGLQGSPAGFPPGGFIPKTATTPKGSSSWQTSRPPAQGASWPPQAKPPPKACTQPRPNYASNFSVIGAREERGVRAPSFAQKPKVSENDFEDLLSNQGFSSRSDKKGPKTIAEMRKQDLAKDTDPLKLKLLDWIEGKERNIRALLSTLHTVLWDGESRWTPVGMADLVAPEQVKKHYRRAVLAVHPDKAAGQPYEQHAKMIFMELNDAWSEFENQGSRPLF
In words: Selectivity interaction (KinomeScan (DiscoverX)) EUB0000607a GAK. The note with it: at 10 µM.

Assay [2] addresses Tyrosine-protein kinase Srms (Homo sapiens) (UniProt Q9H3Y6). The note with it: at 10 µM.
Assay [3] concerns the target T2, Casein kinase I isoform alpha-like (Homo sapiens) (UniProt Q8N752).
T2 sequence (whole entry): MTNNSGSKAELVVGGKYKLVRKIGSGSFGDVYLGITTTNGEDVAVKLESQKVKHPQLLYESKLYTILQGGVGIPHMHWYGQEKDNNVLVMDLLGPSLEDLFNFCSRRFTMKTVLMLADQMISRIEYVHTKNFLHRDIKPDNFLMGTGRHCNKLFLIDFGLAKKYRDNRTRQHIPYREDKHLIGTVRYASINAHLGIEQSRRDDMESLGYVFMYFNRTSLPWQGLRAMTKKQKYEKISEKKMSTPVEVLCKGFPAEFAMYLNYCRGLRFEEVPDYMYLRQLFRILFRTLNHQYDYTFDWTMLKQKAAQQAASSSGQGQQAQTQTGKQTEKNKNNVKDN
In words: Selectivity interaction (KinomeScan (DiscoverX)) EUB0000666a CSNK1A1L. The note with it: at 10 µM.

Assay [4] deals with Dual specificity protein kinase CLK3 (Homo sapiens, UniProt P49761). As to the kind of experiment: Selectivity interaction (KinomeScan (DiscoverX)) EUB0001079a CLK3. The note with it: at 1 µM.
In assay [5] the target is T3, Serine/threonine-protein kinase D2 (Homo sapiens) (UniProt Q9BZL6).
T3 sequence (whole entry): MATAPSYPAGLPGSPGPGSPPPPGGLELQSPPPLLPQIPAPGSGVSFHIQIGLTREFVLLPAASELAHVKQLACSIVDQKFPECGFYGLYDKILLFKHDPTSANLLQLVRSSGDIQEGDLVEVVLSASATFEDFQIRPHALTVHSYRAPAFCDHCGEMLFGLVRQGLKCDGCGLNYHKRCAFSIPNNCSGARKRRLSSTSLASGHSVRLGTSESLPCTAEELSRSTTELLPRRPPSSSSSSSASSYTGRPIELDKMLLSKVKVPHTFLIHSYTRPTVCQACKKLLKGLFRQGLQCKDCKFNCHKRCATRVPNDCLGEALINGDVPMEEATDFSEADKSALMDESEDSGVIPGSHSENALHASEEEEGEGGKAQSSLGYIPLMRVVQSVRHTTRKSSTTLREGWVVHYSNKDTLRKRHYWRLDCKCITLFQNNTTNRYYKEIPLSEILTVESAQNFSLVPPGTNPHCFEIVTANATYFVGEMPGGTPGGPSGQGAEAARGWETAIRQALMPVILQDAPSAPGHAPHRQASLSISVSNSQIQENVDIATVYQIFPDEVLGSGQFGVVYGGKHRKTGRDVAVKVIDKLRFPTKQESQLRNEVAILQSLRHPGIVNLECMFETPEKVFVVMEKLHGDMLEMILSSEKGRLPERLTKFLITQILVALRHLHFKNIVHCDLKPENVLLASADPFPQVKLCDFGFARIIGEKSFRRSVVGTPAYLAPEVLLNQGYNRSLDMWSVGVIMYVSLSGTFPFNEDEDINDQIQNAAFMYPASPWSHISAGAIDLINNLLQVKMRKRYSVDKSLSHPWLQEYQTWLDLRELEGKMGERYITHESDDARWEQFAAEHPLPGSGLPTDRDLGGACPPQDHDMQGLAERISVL
As to the kind of experiment: Selectivity interaction (ProQinase) EUB0000171b PRKD2.

Chain of Tyrosine-protein kinase Srms (Homo sapiens) (Q9H3Y6 whole entry, canonical isoform): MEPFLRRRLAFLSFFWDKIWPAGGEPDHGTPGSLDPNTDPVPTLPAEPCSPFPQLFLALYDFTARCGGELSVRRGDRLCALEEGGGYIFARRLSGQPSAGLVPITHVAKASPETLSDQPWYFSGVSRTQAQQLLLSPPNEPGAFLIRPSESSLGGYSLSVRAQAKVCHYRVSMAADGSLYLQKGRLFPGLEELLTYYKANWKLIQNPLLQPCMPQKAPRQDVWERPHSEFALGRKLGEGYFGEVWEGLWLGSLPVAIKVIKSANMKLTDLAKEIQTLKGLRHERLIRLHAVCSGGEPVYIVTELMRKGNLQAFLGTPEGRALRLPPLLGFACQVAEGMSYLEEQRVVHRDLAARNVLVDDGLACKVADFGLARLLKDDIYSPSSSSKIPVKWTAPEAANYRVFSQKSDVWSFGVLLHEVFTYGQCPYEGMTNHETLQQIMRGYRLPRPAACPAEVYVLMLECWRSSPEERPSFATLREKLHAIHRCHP
Chain of Dual specificity protein kinase CLK3 (P49761 whole entry, looked up): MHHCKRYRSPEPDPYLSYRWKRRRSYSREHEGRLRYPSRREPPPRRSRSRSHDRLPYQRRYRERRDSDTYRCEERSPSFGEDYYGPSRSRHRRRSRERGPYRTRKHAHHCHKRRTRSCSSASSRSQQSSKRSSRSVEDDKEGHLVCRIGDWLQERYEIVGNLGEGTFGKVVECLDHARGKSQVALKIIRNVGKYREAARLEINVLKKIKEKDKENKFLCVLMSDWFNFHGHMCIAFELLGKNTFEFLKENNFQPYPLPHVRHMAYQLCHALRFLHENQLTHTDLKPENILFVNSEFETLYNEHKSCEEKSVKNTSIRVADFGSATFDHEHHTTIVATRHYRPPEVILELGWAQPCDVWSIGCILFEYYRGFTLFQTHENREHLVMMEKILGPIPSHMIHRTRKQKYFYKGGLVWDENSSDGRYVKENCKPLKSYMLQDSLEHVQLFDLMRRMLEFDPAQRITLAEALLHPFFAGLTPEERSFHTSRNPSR

The molecule `CNC(=O)Nc1ccc(-c2nc(N3CC4CCC(C3)O4)c3cnn(C4CCC5(CC4)OCCO5)c3n2)cc1` yielded a % of control in assay [1] of 75%.
`Cc1cc([C@@H](C)Nc2ccccc2C(=O)O)c2nc(N3CCOCC3)cc(=O)n2c1` [AZD-6482] registered a % of control in assay [2] of 63%.
In assay [3], `O=C(NOC[C@H](O)CO)c1ccc(F)c(F)c1Nc1ccc(I)cc1F` came in with a % of control of 80%.
As for `Nc1cnc(N2CCc3cc(S(=O)(=O)Nc4c(F)cc(Cl)cc4F)cc(N4CCCC4=O)c32)nc1` [TP-020n], the % of control in assay [4] amounted to 74%.
In the case of `C=CC(=O)Nc1cccc(C(=O)Nc2ccc(Nc3cc(-c4[nH]c(SC)nc4C)ccn3)cc2)c1`, the % of control in assay [5] (at 1 µM) was determined as 69%; in assay [5] (at 5 µM), 43%.

For the origin of these results see ChEMBL document CHEMBL5465560, “Selectivity Literature for EUbOPEN Chemogenomic Library” (2024).
